Common to all, as to format: biochemical
In assay [1] the target is T1, activated JNK3 (Homo sapiens, UniProt P53779).
T1 construct: One such construct encodes amino acid residues Ser40-Glu402 of JNK3α1 and is preceded by Met and Gly residues; Met-Gly (initiator methionine and added glycine) (N); made in house; host or cells: E. coli BL21 (DE3)
As to the kind of experiment: JNK inhibition assay (spectrophotometric coupled-enzyme assay). Conditions: for Ki: 10 nM activated JNK3, 10 μM ATP, read-out: Activity in the JNK3 Inhibition Assay (Ki rating A-C). A digest of the protocol:
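Activated (doubly phosphorylated, MKK7(DD)-activated) human JNK3, 10 nM, preincubated 10 min at 30 °C with inhibitor in 0.1 M HEPES pH 7.5, 10 mM MgCl2, 200 μM EGF receptor peptide, PK/LDH-coupled. Started with 10 μM ATP; A340 decrease followed at 30 °C. Ki from competitive inhibition model fit.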

In assay [2] the target is T2, full length recombinant human Src kinase (Homo sapiens, UniProt P12931).
T2 construct: full length recombinant human Src kinase; purchased Upstate Biotechnology 14-117; host or cells: baculo viral cells (baculovirus expression)
As to the kind of experiment: Src inhibition assay (33P incorporation into poly Glu-Tyr). Conditions: for Ki: 10 μM ATP, read-out: Activity in the SRC Inhibition Assay (Ki rating A-C); for inhibition at 2 µM: at a 2 μM inhibitor concentration, read-out: Activity in the SRC Inhibition Assay (percent inhibition rating D-F). The method, then: The compounds were assayed as inhibitors of full length recombinant human Src kinase (from Upstate Biotechnology, cat. no. 14-117) expressed and purified from baculo viral cells. Src kinase activity was monitored by following the incorporation of ^33P from ATP into the tyrosine of a random poly Glu-Tyr polymer substrate of composition, Glu:Tyr=4:1 (Sigma, cat. no. P-0275). The following were the final concentrations of the assay components: 0.05 M HEPES, pH 7.6, 10 mM MgCl2, 2 mM DTT, 0.25 mg/ml BSA, 10 μM ATP (1-2 μCi ^33P-ATP per reaction), 5 mg/ml poly Glu-Tyr, and 1-2 units of recombinant human Src kinase. In a typical assay, all the reaction components with the exception of ATP were pre-mixed and aliquoted into assay plate wells. […] The assay plate was incubated at 30° C. for 10 min before initiating the reaction with ^33P-ATP. After 20 min of reaction, the reactions were quenched with 150 μl of 10% trichloroacetic acid (TCA) containing 20 mM Na3PO4. The quenched samples were then transferred to a 96-well filter plate (Whatman, UNI-Filter GF/F Glass Fiber Filter, cat no. 7700-3310) installed on a filter plate vacuum manifold. Filter plates were washed four times with 10% TCA containing 20 mM Na3PO4 and then 4 times with methanol. 200 μl of scintillation fluid was then added to each well. The plates were sealed and the amount of radioactivity associated with the filters was quantified on a TopCount scintillation counter.

The target in assay [3] is Glycogen Synthase Kinase 3 (GSK-3) (Homo sapiens, UniProt P49841). Description: GSK-3 inhibition assay (standard coupled enzyme assay). Conditions: 60 nM GSK-3, 10 μM ATP; read-out: GSK-3 Inhibitory Activity (Ki rating A-C). As for the experimental part: Compounds were screened in the following manner for their ability to inhibit Glycogen Synthase Kinase 3 (GSK-3) using a standard coupled enzyme assay (Fox et al (1998) Protein Sci 7, 2249). To an assay stock buffer solution containing 0.1M HEPES 7.5, 10 mM MgCl2, 25 mM NaCl, 2.5 mM phosphoenolpyruvate, 300 μM NADH, 1 mM DTT, 30 μg/mL pyruvate kinase, 10 μg/mL lactate dehydrogenase, 300 μM peptide (HSSPHQp-SEDEEE, American Peptide, Sunnyvale, Calif.), and 60 nM GSK-3, was added a 30 μM solution of the compound in DMSO and the resulting mixture incubated at 30° C. for 5 min. The reaction was initiated by the addition of 10 μM ATP. The rates of reaction were obtained by monitoring absorbance at 340 nm over a 5 minute read time at 30° C. using a Molecular Devices plate reader (Sunnyvale, Calif.). The IC50 was determined from the rate data as a function of inhibitor concentration.

In assay [4] the target is CDK-2/Cyclin A (Homo sapiens, UniProt P24941). As to the kind of experiment: CDK2 inhibition assay (standard coupled enzyme assay). To be noted: 25 nM CDK-2/Cyclin A; read-out: CDK2 Inhibitory Activity (Ki rating A-C). A digest of the protocol:
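CDK-2/Cyclin A (25 nM final) started the reaction after 10-min, 30° C preincubation of compound (30 μM final) with peptide (100 μM), ATP and coupling enzymes in HEPES pH 7.5.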

Assay [5] deals with T3, Lck kinase purified from bovine thymus (Bos taurus, UniProt Q3ZCM0).
T3 construct: Lck kinase purified from bovine thymus; purchased Upstate Biotechnology 14-106; host or cells: bovine thymus (tissue-purified)
Description: Lck inhibition assay (33P incorporation into poly Glu-Tyr). To be noted: 10 μM ATP; read-out: Activity in the Lck Inhibition Assay (Ki rating A-C). The method in brief:
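Filter-binding radiometric assay of 33P transfer from ATP to poly Glu-Tyr (4:1, 5 mg/ml) by bovine thymus Lck in 0.05 M HEPES pH 7.6, 10 mM MgCl2, 2 mM DTT, 0.25 mg/ml BSA, 10 μM ATP. After 10 min at 30° C, reaction started with 33P-ATP, run 20 min, quenched with TCA; filter-bound radioactivity counted by scintillation.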

T3 sequence (Q3ZCM0 1-509): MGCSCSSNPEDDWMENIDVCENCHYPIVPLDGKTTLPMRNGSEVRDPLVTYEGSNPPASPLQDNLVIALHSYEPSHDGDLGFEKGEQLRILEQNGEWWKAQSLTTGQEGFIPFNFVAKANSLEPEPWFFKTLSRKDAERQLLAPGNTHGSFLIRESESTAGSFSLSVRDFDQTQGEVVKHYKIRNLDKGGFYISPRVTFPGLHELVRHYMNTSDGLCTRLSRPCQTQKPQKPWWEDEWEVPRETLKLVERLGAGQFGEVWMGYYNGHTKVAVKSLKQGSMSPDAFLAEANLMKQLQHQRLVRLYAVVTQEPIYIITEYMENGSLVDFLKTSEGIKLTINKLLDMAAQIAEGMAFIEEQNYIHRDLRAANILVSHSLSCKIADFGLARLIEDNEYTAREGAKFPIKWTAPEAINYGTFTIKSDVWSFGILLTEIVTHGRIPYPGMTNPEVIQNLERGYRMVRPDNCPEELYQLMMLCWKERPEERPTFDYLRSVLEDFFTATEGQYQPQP
Sequence of Glycogen Synthase Kinase 3 (GSK-3) (P49841 whole entry): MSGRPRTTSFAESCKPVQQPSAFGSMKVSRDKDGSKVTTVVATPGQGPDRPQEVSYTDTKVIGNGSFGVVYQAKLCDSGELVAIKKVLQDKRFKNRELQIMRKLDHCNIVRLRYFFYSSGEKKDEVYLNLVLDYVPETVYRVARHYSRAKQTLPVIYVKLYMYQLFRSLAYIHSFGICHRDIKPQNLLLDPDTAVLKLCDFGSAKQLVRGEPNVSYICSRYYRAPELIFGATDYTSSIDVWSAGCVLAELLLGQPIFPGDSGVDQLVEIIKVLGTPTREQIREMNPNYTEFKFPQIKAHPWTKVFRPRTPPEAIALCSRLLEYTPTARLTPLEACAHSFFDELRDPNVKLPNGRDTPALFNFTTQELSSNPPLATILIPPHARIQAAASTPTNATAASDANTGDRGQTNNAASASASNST
T2 sequence (P12931 whole entry): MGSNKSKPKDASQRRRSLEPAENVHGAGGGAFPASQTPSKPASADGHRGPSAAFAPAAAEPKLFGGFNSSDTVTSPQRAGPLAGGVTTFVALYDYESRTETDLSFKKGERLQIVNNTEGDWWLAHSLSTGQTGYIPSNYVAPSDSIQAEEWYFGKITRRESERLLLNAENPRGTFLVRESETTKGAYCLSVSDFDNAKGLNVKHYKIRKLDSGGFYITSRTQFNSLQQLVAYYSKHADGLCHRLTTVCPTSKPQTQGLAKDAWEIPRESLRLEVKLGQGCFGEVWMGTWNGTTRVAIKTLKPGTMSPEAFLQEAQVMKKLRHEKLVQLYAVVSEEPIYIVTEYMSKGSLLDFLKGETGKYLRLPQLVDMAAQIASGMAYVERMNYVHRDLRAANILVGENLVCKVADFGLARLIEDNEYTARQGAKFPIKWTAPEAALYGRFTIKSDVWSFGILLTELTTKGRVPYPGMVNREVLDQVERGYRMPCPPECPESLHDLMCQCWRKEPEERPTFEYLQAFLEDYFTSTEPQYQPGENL
T1 sequence (P53779 40-402): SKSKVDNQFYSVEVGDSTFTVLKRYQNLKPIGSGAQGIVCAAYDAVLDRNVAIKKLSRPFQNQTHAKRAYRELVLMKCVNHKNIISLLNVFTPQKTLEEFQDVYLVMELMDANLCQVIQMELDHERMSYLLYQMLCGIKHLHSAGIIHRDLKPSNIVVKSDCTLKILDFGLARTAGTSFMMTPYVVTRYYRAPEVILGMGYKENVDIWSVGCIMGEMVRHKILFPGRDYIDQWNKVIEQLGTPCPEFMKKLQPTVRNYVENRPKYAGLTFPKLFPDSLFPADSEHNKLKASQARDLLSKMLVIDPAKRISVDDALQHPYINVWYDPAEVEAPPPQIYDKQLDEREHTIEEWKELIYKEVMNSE

A word on the Ki: it is a measure of affinity in units of concentration, obtained from inhibition or displacement. As to `COc1cc(-c2ccnc(Nc3ccc(Cl)cc3)n2)cc(OC)c1OC` [Compound I-1], the Ki in assay [1] is 100 to 1000 nM; in assay [2] it was more than 1000 nM; in assay [3], more than 1000 nM; in assay [4], more than 5000 nM.
As a reminder, the inhibition is the share of the control response that was lost under treatment. For the compound `COc1cc(-c2ccnc(Nc3ccc(F)cc3)n2)cc(OC)c1OC` [Compound I-3], the Ki was less than 100 nM in assay [1], more than 1000 nM in assay [5] and more than 5000 nM in assay [4]. In assay [2], the inhibition at 2 µM was less than 33%.
Consider `COc1cc(-c2ccnc(NC3CCCCC3)n2)cc(OC)c1OC` [Compound I-4], for which the Ki in assay [1] is 100 to 1000 nM; in assay [2], more than 1000 nM; in assay [3] it was more than 1000 nM; in assay [4], more than 5000 nM.
Consider `COc1cc(Nc2nccc(-c3cc(OC)c(OC)c(OC)c3)n2)cc(OC)c1` [Compound I-12], for which the results for the Ki in assay [1], in assay [3] and in assay [4] were less than 100 nM, 100 to 1000 nM and more than 5000 nM, respectively. Besides, the inhibition at 2 µM in assay [2] was less than 33%.
For `COc1cc(-c2ccnc(Nc3cccc(F)c3F)n2)cc(OC)c1OC` [Compound I-13], the Ki was less than 100 nM in assay [1] and more than 5000 nM in assay [4]. In addition, the inhibition at 2 µM in assay [2] fell in the range of 24 to 66%.
With `COc1c(Br)cc(-c2ccnc(Nc3cccc(F)c3)n2)cc1Br` [Compound I-48], the Ki in assay [1] and in assay [3] was 100 to 1000 nM throughout. In addition, the inhibition at 2 µM in assay [2] is 24 to 66%.
As to `CCOc1c(OC)cc(-c2ccnc(Nc3cccc(OC)c3)n2)cc1OC` [Compound I-50], the Ki in assay [1] was less than 100 nM. Further, the inhibition at 2 µM in assay [2] was 67 to 100%.
In the case of `COc1cc(-c2ccnc(Nc3cccc(O)c3)n2)cc(OC)c1OC` [Compound I-58], in assay [1], the Ki is less than 100 nM. Further, the inhibition at 2 µM in assay [2] fell in the range of 24 to 66%.
Take `COc1cc(-c2ccnc(Nc3cccc(Br)c3)n2)cc(OC)c1OC` [Compound I-59]: the results for the Ki in assay [1], in assay [3] and in assay [4] were less than 100 nM, less than 100 nM and more than 5000 nM, respectively. The inhibition at 2 µM in assay [2] fell in the range of 67 to 100%.
Take `COc1cc(-c2ccnc(Nc3cccc(F)c3)n2)cc(OC)c1OC` [Compound I-60]: the Ki is less than 100 nM in assay [1] and more than 5000 nM in assay [4]. Also, the inhibition at 2 µM in assay [2] was in the range of 67 to 100%.
On to `COc1cc(-c2ccnc(Nc3ccc(Cl)nc3)n2)cc(OC)c1OC` [Compound I-61], for which the figures for the Ki in assay [1] and in assay [4] were less than 100 nM and more than 5000 nM, respectively. The inhibition at 2 µM in assay [2] is less than 33%.
As for `COc1cc(-c2ccnc(Nc3ccc4ccccc4c3)n2)cc(OC)c1OC` [Compound I-62], the values for the Ki in assay [1] and in assay [3] were less than 100 nM and 100 to 1000 nM, respectively. In assay [2], the inhibition at 2 µM is less than 33%.
On to `COc1cc(-c2ccnc(Nc3ccc4c(c3)OCO4)n2)cc(OC)c1OC` [Compound I-63], for which the Ki in assay [1] was less than 100 nM. Moreover, the inhibition at 2 µM in assay [2] lay in the range of 24 to 66%.
For `COc1ccc(Nc2nccc(-c3cc(OC)c(OC)c(OC)c3)n2)cc1OC` [Compound I-64], the “Activity in the JNK3 Inhibition Assay (percent inhibition rating D-F)” value in assay [1] (at a 2 μM inhibitor concentration) is “F (percent inhibition of between 67% and 100%)”. For the same compound, the inhibition at 2 µM in assay [2] lay within 67 to 100%. In assay [3], the Ki was in the range of 100 to 1000 nM.
Consider `COc1cc(-c2ccnc(Nc3ccc(Cl)nc3)n2)cc(OC)c1O` [Compound I-73], for which the Ki in assay [1] was less than 100 nM. In addition, the inhibition at 2 µM in assay [2] is 24 to 66%.
The corresponding values for `COc1cc(-c2ccnc(Nc3ccccc3)n2)cc2c1OCCO2` [Compound I-74] are less than 100 nM and 24 to 66%.
On to `COc1cc(-c2ccnc(Nc3cccc(Cl)c3)n2)cc2c1OCCO2` [Compound I-75], for which the Ki in assay [1] and in assay [3] was less than 100 nM in each case. Moreover, the inhibition at 2 µM in assay [2] fell in the range of 67 to 100%.
`COc1cc(-c2ccnc(Nc3ccc(Cl)cc3)n2)cc2c1OCCO2` [Compound I-76]: the Ki in assay [1] is less than 100 nM. Besides, in assay [2], the inhibition at 2 µM was in the range of 24 to 66%.
`COc1ccc(Nc2nccc(-c3cc(OC)c4c(c3)OCCO4)n2)cc1` [Compound I-78]: the Ki in assay [1] is less than 100 nM. For the same compound, the inhibition at 2 µM in assay [2] was in the range of 24 to 66%.
For the compound `COc1cc(-c2ccnc(Nc3cccc(F)c3)n2)cc2c1OCCO2` [Compound I-79], in assay [1], the Ki was less than 100 nM. Further, the inhibition at 2 µM in assay [2] was 24 to 66%.
Consider `COc1cc(-c2ccnc(Nc3ccc(F)cc3)n2)cc2c1OCCO2` [Compound I-80], for which, in assay [1], the Ki was less than 100 nM. Besides, the inhibition at 2 µM in assay [2] lay in the range of 24 to 66%.
`COc1cc(-c2ccnc(Nc3cccc(C)c3)n2)cc2c1OCCO2` [Compound I-81]: the Ki in assay [1] is less than 100 nM. In addition, in assay [2], the inhibition at 2 µM lay within 67 to 100%.
For `COc1cc(-c2ccnc(Nc3ccc(C)cc3)n2)cc2c1OCCO2` [Compound I-82] the same measures were less than 100 nM and less than 33%.
`COc1ccc(-c2ccnc(Nc3cccc(Oc4ccccc4)c3)n2)c(OC)c1OC` [II-1]: the Ki in assay [2] and in assay [5] was less than 100 nM each time.
Turning to `COc1ccc(-c2ccnc(Nc3cccc(S(=O)(=O)c4ccccc4)c3)n2)c(OC)c1OC` [II-24], the Ki in assay [2] is less than 100 nM; in assay [5] it was 100 to 1000 nM.
Take `COc1ccc(-c2ccnc(Nc3cccc(-c4ccccc4C)c3)n2)c(OC)c1OC` [II-62]: the Ki in assay [2] is 100 to 1000 nM; in assay [5], more than 1000 nM; in assay [4], more than 5000 nM.
Turning to `COc1ccc(-c2ccnc(Nc3cccc(-c4ccc(C)cc4)c3)n2)c(OC)c1OC` [II-63], the inhibitory constant (Ki) is less than 100 nM in assay [2] and 100 to 1000 nM in assay [5].
Turning to `COc1ccc(-c2cccc(F)c2)cc1Nc1nccc(-c2ccc(OC)c(OC)c2OC)n1` [II-64], the inhibition constant Ki was less than 100 nM in assay [2] and more than 1000 nM in assay [3].
As for `COc1ccc(-c2cccc(Cl)c2)cc1Nc1nccc(-c2ccc(OC)c(OC)c2OC)n1` [II-65], the inhibitory constant (Ki) in assay [2] is 100 to 1000 nM; in assay [3], more than 1000 nM.
As to `COc1ccc(-c2ccnc(Nc3cc(-c4cccc(Cl)c4)ccc3F)n2)c(OC)c1OC` [II-66], the Ki in assay [2] and in assay [3] was more than 1000 nM throughout.
`COc1ccc(Nc2nccc(-c3ccc(OC)c(OC)c3OC)n2)cc1-c1cccc(Cl)c1` [II-67]: the Ki in assay [2] and in assay [3] was less than 100 nM in each case.
Turning to `COc1ccc(Nc2nccc(-c3ccc(OC)c(OC)c3OC)n2)cc1-c1ccc(Cl)cc1` [II-68], the Ki in assay [2] was 100 to 1000 nM; in assay [3], less than 100 nM.
In the case of `COc1ccc(Nc2nccc(-c3ccc(OC)c(OC)c3OC)n2)cc1-c1cccc(F)c1` [II-69], the Ki in assay [2] and in assay [3] was less than 100 nM throughout.

The values above are taken from US6949544B2, “Inhibitors of c-Jun N-terminal kinases (JNK) and other protein kinases” (Vertex Pharmaceuticals Incorporated, priority 2001, dated 2005).
